According to patent EP2380575B1, “Eslicarbazepine acetate and use” (Bial-Portela & CA, S.A., priority 2005, dated 2006):
Read-outs that look alike come from different tables or passages of the source.

What was measured:
[1] = Study in epileptic patients: trough plasma concentrations of BIA 2-005; type: in vivo, humans
Description: This clinical trial was a double-blind, randomized, placebo-controlled study performed by 20 centers in Croatia, Czech Republic, Germany, Lithuania and Poland. The stated objectives of the study were to assess the efficacy and safety of BIA 2-093 as adjunctive therapy in patients with refractory partial epilepsy. In total, 143 patients aged 18-65 years with at least 4 partial-onset seizures per month in spite of treatment with 1 or 2 antiepileptic drugs (AEDs) (e.g., phenytoin, valproate, primidone, phenobarbital, lamotrigine, gabapentin, topiramate or clonazepam) were randomly assigned to one of three groups: treatment with placebo (n=47), BIA 2-093 once-daily (n=50), or BIA 2-093 twice-daily (n=46), during 12 weeks (plus 1 week of tapering off). For the first 4 weeks, daily dose was 400 mg. Then, daily doses were increased to 800 mg (weeks 5-8), and finally to 1200 mg (weeks 9-12). […] See, e.g., Almeida I and Almeida II.
Plasma/serum samples for the "trough" (pre-dose) levels of BIA 2-005 and concomitant AEDs were collected at all visits but V5 (post-study visit). The objective was to characterize the influence of eslicarbazepine acetate on the pharmacokinetic behavior of the concomitant AEDs (e.g., phenytoin, valproate, primidone, phenobarbital, lamotrigine, gabapentin, topiramate, and clonazepam). […] Table 1: Trough plasma concentrations of BIA 2-005 following oral administration of eslicarbazepine acetate once-daily (o.d.) and twice-daily (b.i.d)

[2] = tested on: patients with refractory partial epilepsy; assay: Study in epileptic patients: efficacy as adjunctive therapy; type: in vivo, humans; conditions: for reduction in the number of seizures: versus baseline; for proportion of responders (50% or greater reduction in seizure frequency vs baseline): ITT
Protocol: The effects of eslicarbazepine acetate in humans was studied in at least the following clinical studies. In the first study, a placebo-controlled therapeutic exploratory study, once-daily and twice-daily dosing was compared in epileptic patients refractory to standard anti-epileptic drug therapy. In the second study, healthy subjects received either a once-daily (o.d.) oral dose of 900 mg of eslicarbazepine acetate or a twice-daily (b.i.d.) dose of 450 mg of eslicarbazepine acetate. In the third study, healthy subjects received single oral doses of eslicarbazepine acetate ranging from 20 mg to 2400 mg, and repeated once-daily (o.d.) oral doses ranging from 400 mg to 2400 mg of eslicarbazepine acetate. This clinical trial was a double-blind, randomized, placebo-controlled study performed by 20 centers in Croatia, Czech Republic, Germany, Lithuania and Poland. The stated objectives of the study were to assess the efficacy and safety of BIA 2-093 as adjunctive therapy in patients with refractory partial epilepsy. […] For the first 4 weeks, daily dose was 400 mg. Then, daily doses were increased to 800 mg (weeks 5-8), and finally to 1200 mg (weeks 9-12). […] See, […] and Almeida II. The proportion of patients with a 50% or greater reduction in seizure frequency in the treatment period compared to the baseline period in the intention-to-treat (ITT) population (n=143) was the primary efficacy endpoint. […] The proportion of responders in the once-daily group (54%) was also higher than in the twice-daily (41%) group. […] At this dose level, no significant difference was found between the twice-daily and the placebo groups. Secondary endpoints include the reduction in total seizure frequency, proportion of seizure-free patients, distribution of responders, comparison of once and twice daily regimens, and investigator's and patient's global evaluation.

[3] = Trial B: pharmacokinetics following single and repeated doses in healthy young male subjects; type: in vivo, humans; conditions: in a minor extent to R-licarbazepine
Protocol: The study integrated the results of three double-blind, randomized, placebo-controlled trials. To measure the pharmacokinetics of eslicarbazepine acetate following single doses, oral single doses of eslicarbazepine acetate ranging from 20 mg to 2400 mg were administered to healthy young male subjects (6 subjects per dose). The pharmacokinetics of eslicarbazepine acetate following repeated doses were measured by administering repeated oral doses ranging from 400 mg to 2400 mg of eslicarbazepine acetate to healthy young male subjects (6 subjects per dose) over a period of 8 days. Analytical test methods and experimental procedures were similar to those described for Trial A above.

[4] = Metabolic profile in liver microsomes, chiral analysis; type: in vitro ADME; conditions: liver microsomes from rats, dogs, monkeys and humans, not the R(-) form
[5] = not given; remark: listed apart in the source
[6] = tested on: voltage-gated sodium channel (VGSC); conditions: compared with carbamazepine; cited from earlier work
[7] = after oral administration; below LOQ of the assay; cited from earlier work

## NC(=O)N1c2ccccc2CC(O)c2ccccc21 (stereo not drawn) [BIA 2-005]
Oral eslicarbazepine acetate, healthy subjects
  extent of systemic exposure versus dose: approximately dose-proportional
Within 12 hours post-dose
  total amount recovered in the urine: about 20%
Within 24 hours post-dose
  total amount recovered in the urine: ~40%
[1]; 400 mg/day eslicarbazepine acetate, b.i.d. group
  Trough plasma concentration, Mean (sd): 4.9(2.3) µg/mL
[1]; 400 mg/day eslicarbazepine acetate, o.d. group
  Trough plasma concentration, Mean (sd): 4.0 (3.2) µg/mL
[1]; 800 mg/day eslicarbazepine acetate, b.i.d. group
  Trough plasma concentration, Mean (sd): 13.5 (9.6) µg/mL
[1]; 800 mg/day eslicarbazepine acetate, o.d. group
  Trough plasma concentration, Mean (sd): 10.7(7.0) µg/mL
[1]; 1200 mg/day eslicarbazepine acetate, b.i.d. group
  Trough plasma concentration, Mean (sd): 15.5 (8.8) µg/mL
[1]; 1200 mg/day eslicarbazepine acetate, o.d. group
  Trough plasma concentration, Mean (sd): 14.6 (8.8) µg/mL

## CC(=O)O[C@H]1Cc2ccccc2N(C(N)=O)c2ccccc21 [eslicarbazepine acetate]
[2]; 400 mg once-daily
  reduction in the number of seizures: 38.9%
[2]; 400 mg twice-daily
  reduction in the number of seizures: 20.2%
[2]; 800 mg once-daily
  reduction in the number of seizures: 55.8%
[2]; 800 mg twice-daily
  reduction in the number of seizures: 38.1%
[2]; 800 mg/day (weeks 5-8), once-daily group
  proportion of responders (50% or greater reduction in seizure frequency vs baseline): 58%
[2]; 800 mg/day (weeks 5-8), twice-daily group
  proportion of responders (50% or greater reduction in seizure frequency vs baseline): 33%
[2]; 1200 mg once-daily
  reduction in the number of seizures: 59.5%
[2]; 1200 mg twice-daily
  reduction in the number of seizures: 47.5%
[2]; 1200 mg/day (weeks 9-12), once-daily group
  proportion of responders (50% or greater reduction in seizure frequency vs baseline): 54%
[2]; 1200 mg/day (weeks 9-12), twice-daily group
  proportion of responders (50% or greater reduction in seizure frequency vs baseline): 41%
[2]; end of the 12-week treatment phase, once-daily group
  patients seizure-free: 27.9%
[2]; once-daily group compared with the other groups
  assessment of efficacy by the investigator (CGI - Clinical Global Impression) and of acceptability by patient: rated best
[3]
  metabolism of eslicarbazepine acetate: extensively metabolized to eslicarbazepine
[4]
  metabolite formed in liver microsomes: S(+) enantiomer of licarbazepine
[5]; in a minor extent to R-licarbazepine
  metabolism of eslicarbazepine acetate: extensively metabolized to eslicarbazepine
[5]; limit of quantification 10 ng/mL
  plasma concentrations of parent drug: below the limit of quantification
[6]
  affinity for the resting state of the channel, lower than that of carbamazepine: about 3 fold
[7]
  plasma concentrations of the parent drug: < 10 ng/mL
